We go through 1 molecule from BindingDB's records for doi:10.1021/jm049864b (Boehringer Ingelheim (Canada), 2004).

Where a SMILES comes first, the peptide text is derived from it. [ ]: non-standard residue; d: D form. Nva = CCC[C@H](N)C(=O)O

In general, IC50 refers to the concentration at which inhibition is half-maximal. The low end stands for greater potency in that assay, the high end for weaker potency in that assay.

The experiment addresses T1, Genome polyprotein [1027-1206,R1052K]/[1678-1691] (Hepatitis C virus genotype 1b (isolate Japanese), UniProt P26662+Q9WMX2, R1052K).
T1 construct: 1027-1206; 1678-1691
Nature of the experiment: HCV Protease Inhibition Assay. The note with it: pH 7.5; 23 °C.

T1 sequence (Q9WMX2 1027-1206, looked up, stated change not applied, other chains not shown): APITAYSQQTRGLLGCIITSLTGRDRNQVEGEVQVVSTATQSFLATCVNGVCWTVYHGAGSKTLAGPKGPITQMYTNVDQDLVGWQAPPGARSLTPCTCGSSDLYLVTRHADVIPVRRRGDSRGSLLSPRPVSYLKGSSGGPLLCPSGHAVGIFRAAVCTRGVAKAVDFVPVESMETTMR

For `CCC[C@H](NC(=O)[C@@H]1CCCN1C(=O)[C@@H](NC(=O)[C@@H](NC(=O)[C@H](CC(=O)O)NC(=O)[C@H](CC(=O)O)NC(C)=O)[C@@H](C)CC)C(C)C)C(=O)O` [(2S)-2-{[(2S)-1-[(2S)-2-[(2S)-2-[(3S)-3-[(3S)-3-acetamido-3-formamidopropanoic acid]-3-formamidopropanoic acid]-3-methylpentanamido]-3-methylbutanoyl]pyrrolidin-2-yl]formamido}pentanoic acid] (Ac-DDIVP[Nva]-OH), half-maximal inhibition (IC50) was put at 150 µM.
